Measured values taken from PMC9728307 (Journal of Microbiology and Biotechnology, 2020).
Where a name gives a salt, the structure may show the parent alone. Read-outs that look alike come from different tables or passages of the source. *1 amine or outer side, *2 acyl side, *3 side chain or, on linkers, in order; H or OH if unused. Where a SMILES comes first, the peptide text is derived from it. Bridges are numbered along the chain shown (N, C = ends). [ ]: non-standard residue; d: D form. The star is where a group is joined. hTyr(3S-OH,4S-OH,3'-OSO3H) = N[C@H](C(=O)O)[C@H](O)[C@@H](O)c1ccc(O)c(OS(=O)(=O)O)c1; Orn(4R-OH,5R-OH) = O=C([C@H](C[C@@H](O)[C@@H](O)N[*:3])N[*:1])[*:2]; Pro(3S-OH,4S-Me) = C[C@H]1CN[C@H](C(=O)O)[C@H]1O; X1 = CCCCCOc1ccc(-c2cc(-c3ccc(C(=O)*)cc3)no2)cc1; Gln(3R-OH) = NC(=O)C[C@@H](O)[C@H](N)C(=O)O; Hyp = O=C(O)[C@@H]1C[C@@H](O)CN1

How the values were obtained:
SARS-CoV-2 [1] = assay: microbe, parasite or virus in culture; type: cell-based; details: for Selectivity Index (SI): CC50/IC50
in vitro = details: African green monkey, CC50 cell toxicity
Vero cells = details: read-out: CC50 cell toxicity, MTS, no virus, compounds from secondary screening
SARS-CoV-2 [2] = assay: Viral RNA by real-time RT-PCR with primer sets specific to N gene; type: cell-based; details: virus-infected cells treated with drug
Method: Bromhexine hydrochloride is an inhibitor of TMPRSS2, a cofactor of SARS-CoV-2 entry, and one group reported that the drug was effective on COVID-19 patients in a clinical trial. To further investigate whether bromhexine hydrochloride could inhibit SARS-CoV-2 replication, viral RNA was measured by real-time RT-PCR using primer sets specific to N gene of SARS-CoV-2.
Fig. 4 Suppression of SARS-CoV-2 replication by bromhexine hydrochloride. Cellular RNAs were isolated from cells infected by SARS-COV-2 and treated with bromhexine hydrochloride. The level of viral RNA was measured by real-time RT-PCR using primer sets specific to N gene of SARS-CoV-2.

SARS-CoV-2 [3] = type: cell-based; details: Vero cells, 20 μM, MOI 0.5, three days after infection, microscopic observation
[4] = compounds from primary screening
[5] = Severe acute respiratory syndrome coronavirus 2, Vero, 24 h, Vero cells, MOI 2, 24 h post-infection, compounds from primary screening, 100 μM to 0.16 μM, read-out: IC50 antiviral activity
[6] = Vero cells, MTS, no virus, compounds from primary screening
[7] = compounds from secondary screening
[8] = Severe acute respiratory syndrome coronavirus 2, Vero, 24 h, Vero cells, MOI 2, 24 h post-infection, compounds from secondary screening, 0.08–50 μM, read-out: IC50 antiviral activity
[9] = Vero cells, MTS, no virus, compounds from secondary screening
[10] = Vero cells, MOI 2, 24 h post-infection, compounds from secondary screening, 0.08–50 μM, read-out: IC50 antiviral activity
[11] = Severe acute respiratory syndrome coronavirus 2, Vero, 24 h, read-out: IC50 antiviral activity

Row | Compound | Selectivity Index (SI) (SARS-CoV-2 [1]; [4]) | CC50 at 24 h (in vitro; [6]) [µM] | Selectivity Index (SI) (SARS-CoV-2 [1]; [7]) | IC50 (SARS-CoV-2 [1]; [8]) [µM] | CC50 at 24 h (in vitro; [9]) [µM] | also measured
1 | COc1ccc(CN2CCN(C(c3ccc(F)cc3)c3ccc(F)cc3)CC2)c(OC)c1OC [Lomerizine] | >7.8 | – | – | – | – | IC50 (SARS-CoV-2 [1]; [5]): 12.8 µM; CC50 at 24 h (in vitro): > 100 µM
2 | Cc1ccc(-c2cc(C(F)(F)F)nn2-c2ccc(S(N)(=O)=O)cc2)cc1 [Celecoxib] | 4.3 | 74.8 | – | – | – | IC50 (SARS-CoV-2 [1]; [5]): 17.5 µM
3 | CC(C)(C)c1ccc(CN2CCN(C(c3ccccc3)c3ccc(Cl)cc3)CC2)cc1 (centres unmarked) [Buclizine] | >5.1 | > 100 | – | – | – | IC50 (SARS-CoV-2 [1]; [5]): 19.6 µM
4 | CC(CN1c2ccccc2Sc2ccccc21)N(C)C (centres unmarked) [Promethazine hydrochloride] | – | – | >2.6 | 19.1 | > 50 | –
5 | CN1CCN(CCCN2c3ccccc3Sc3ccc(S(=O)(=O)N(C)C)cc32)CC1 [Thioproperazine dimesylate] | – | – | – | – | – | IC50 (SARS-CoV-2 [1]; [10]): 13.4 µM; CC50 (Vero cells): 41 µM
6 | CCN(CC)Cc1cc(Nc2ccnc3cc(Cl)ccc23)ccc1O [Amodiaquine] | >17.2 | > 100 | >10.9 | 4.6 | > 50 | IC50 (SARS-CoV-2 [1]; [5]): 5.8 µM
7 | O=C(O)Cc1cc(I)c(Oc2ccc(O)c(I)c2)c(I)c1 [Tiratricol] | – | – | >10.9 | – | > 50 | IC50 (SARS-CoV-2 [1]; [11]): 4.6 µM
8 | CCCCc1nc(Cl)c(CO)n1Cc1ccc(-c2ccccc2-c2nn[nH]n2)cc1 [Losartan] | >1.4 | > 100 | – | – | – | IC50 (SARS-CoV-2 [1]; [5]): 72 µM
9 | CC[C@H]1CN2CC[C@H]1C[C@@H]2[C@@H](O)c1ccnc2ccc(OC)cc12 [hydroquinidine] | – | – | >2.1 | 23.8 | > 50 | –
10 | Fc1ccc(C(c2ccc(F)cc2)N2CCN(C/C=C/c3ccccc3)CC2)cc1 [Flunarizine] | – | > 100 | – | – | – | –
11 | Cc1cccc(CN2CCN(C(c3ccccc3)c3ccc(Cl)cc3)CC2)c1 (centres unmarked) [Meclizine] | >17.9 | > 100 | – | – | – | IC50 (SARS-CoV-2 [1]; [5]): 5.6 µM
12 | C=C[C@H]1C[N@@]2CC[C@H]1C[C@@H]2[C@@H](O)c1ccnc2ccc(OC)cc12 [Quinidine gluconate] | – | – | >2.1 | 24.2 | > 50 | –
13 | O=C(CCCl)NCc1ccccc1 [Beclamide] | >1.4 | > 100 | – | – | – | IC50 (SARS-CoV-2 [1]; [11]): 72 µM
14 | CC1=NN(c2ccc(C)c(C)c2)C(=O)/C1=N\Nc1cccc(-c2cccc(C(=O)O)c2)c1O [Eltrombopag] | – | – | 21.9 | 2 | 43.8 | –
15 | Cc1ccc(NC(=O)c2ccc(CN3CCN(C)CC3)cc2)cc1Nc1nccc(-c2cccnc2)n1 [Imatinib] | – | – | – | – | > 50 | –
16 | CN(Cc1cc(Br)cc(Br)c1N)C1CCCCC1 [Bromhexine hydrochloride] | – | – | >3.5 | – | > 50 | IC50 (SARS-CoV-2 [1]; [11]): 14.4 µM; Level of intracellular viral RNA (SARS-CoV-2 [2]): effectively reduced the intracellular RNA
17 | CC[C@@H](C(=O)[C@@H](C)[C@@H](O)[C@H](C)[C@@H]1O[C@@H]([C@@H](CC)C(=O)O)CC[C@@H]1C)[C@H]1O[C@]2(C=C[C@@H](O)[C@]3(CC[C@@](C)([C@H]4CC[C@](O)(CC)[C@H](C)O4)O3)O2)[C@H](C)C[C@@H]1C [Salinomycin] | 97.1 | 56.3 | – | – | – | IC50 (SARS-CoV-2 [1]; [11]): 0.58 µM
18 | CN1CCC(OC(c2ccccc2)c2ccccc2)CC1 [Diphenylpyraline hydrochloride] | – | – | >1.2 | 42.4 | > 50 | –
19 | COC(=O)[C@H]1[C@H]2C[C@@H]3c4[nH]c5cc(OC)ccc5c4CCN3C[C@H]2C[C@@H](OC(=O)c2cc(OC)c(OC)c(OC)c2)[C@@H]1OC [Reserpine] | – | – | >1.7 | 29.2 | > 50 | –
20 | CN(C)C(=O)C(CCN1CCC(O)(c2ccc(Cl)cc2)CC1)(c1ccccc1)c1ccccc1 [Loperamide hydrochloride] | – | – | – | – | > 50 | –
21 | CCN(CC)C(C)CN1c2ccccc2Sc2ccccc21 (centres unmarked) [Ethopropazine hydrochloride] | – | – | >2.5 | 20.3 | > 50 | –
22 | CCOC(=O)C1=C[C@]2(CC)CCCN3CCc4c(n1c1ccccc41)[C@@H]32 [Vinpocetine] | – | – | >5.8 | 8.6 | > 50 | –
23 | CN1CC2c3ccccc3Oc3ccc(Cl)cc3C2C1 (centres unmarked) [Asenapine] | – | – | – | – | > 50 | –
24 | CCC(CC)COC(=O)[C@H](C)N[P@](=O)(OC[C@H]1O[C@@](C#N)(c2ccc3c(N)ncnn23)[C@H](O)[C@@H]1O)Oc1ccccc1 [Remdesivir] | >20 | > 100 | >10 | 5 | > 50 | IC50 (SARS-CoV-2 [1]; Severe acute respiratory syndrome coronavirus 2, Vero, 24 h, Vero cells, 2 MOI, 24 h post-infection, calibration of the assay with reference compound (Fig. 1), read-out: IC50 antiviral activity): 6 µM; IC50 (SARS-CoV-2 [1]; [5]): 5 µM; Inhibition of viral CPE (SARS-CoV-2 [3]): complete absence of CPE
25 | CCCS(=O)(=O)Nc1ccc(F)c(C(=O)c2c[nH]c3ncc(-c4ccc(Cl)cc4)cc23)c1F [Vemurafenib (PLX4032), Vemurafenib] | – | – | >7.1 | 7 | – | CC50 at 24 h (in vitro): > 50 µM
26 | CC(C)N(CCCCOCC(=O)NS(C)(=O)=O)c1cnc(-c2ccccc2)c(-c2ccccc2)n1 [Selexipag] | – | – | >5.9 | 8.5 | – | CC50 at 24 h (in vitro): > 50 µM
27 | Cc1ccc(NC(=O)c2ccc(CN3CCN(C)CC3)cc2)cc1Nc1nc(-c2cccnc2)cs1 [Masitinib] | – | – | 3.2 | – | 47.1 | IC50 (SARS-CoV-2 [1]; [11]): 14.9 µM
28 | CCCCOc1cc(C(=O)NCCN(CC)CC)c2ccccc2n1 [Dibucaine hydrochloride] | – | – | >2.3 | 21.6 | – | CC50 at 24 h (in vitro): > 50 µM
29 | CCCCCOc1ccc(-c2cc(-c3ccc(C(=O)N[C@H]4C[C@@H](O)[C@@H](O)NC(=O)[C@@H]5[C@@H](O)[C@@H](C)CN5C(=O)[C@H]([C@H](O)CC(N)=O)NC(=O)[C@H]([C@H](O)[C@@H](O)c5ccc(O)c(OS(=O)(=O)O)c5)NC(=O)[C@@H]5C[C@@H](O)CN5C(=O)[C@H]([C@@H](C)O)NC4=O)cc3)no2)cc1 [Micafungin] (X1-[Orn(4R-OH,5R-OH)]T[Hyp][hTyr(3S-OH,4S-OH,3'-OSO3H)][Gln(3R-OH)][Pro(3S-OH,4S-Me)]; lactam 1-C) | >18.1 | > 100 | >3.9 | – | > 50 | IC50 (SARS-CoV-2 [1]; Severe acute respiratory syndrome coronavirus 2, Vero, 24 h, read-out: IC50 antiviral activity, Vero cells, MOI 2, 24 h post-infection, compounds from primary screening, 100 μM to 0.16 μM): 5.5 µM; IC50 (SARS-CoV-2 [1]; Severe acute respiratory syndrome coronavirus 2, Vero, 24 h, read-out: IC50 antiviral activity, Vero cells, MOI 2, 24 h post-infection, compounds from secondary screening, 0.08–50 μM): 12.9 µM
30 | C=C[C@@]1(C)CC(=O)[C@]2(O)[C@@]3(C)[C@@H](O)CCC(C)(C)[C@@H]3[C@H](OC(=O)CCN(C)C)[C@H](OC(C)=O)[C@@]2(C)O1 [NKH 477] | – | – | – | – | – | IC50 (SARS-CoV-2 [1]; [10]): 12.7 µM; CC50 (Vero cells): > 50 µM
